The record followed here is EPA's ToxRefDB 2.

Data set [1] concerns rat. The settings on record: Prenatal developmental toxicity study; sprague dawley; Oral; Gavage/Intubation; dose end: 15 GD; group: developmental; systemic / in life observation / body weight / fetal weight.
Data set [2] relates to rat. The settings on record: Carcinogenicity, fischer, Oral, Feed, dose end: 104 week, group: systemic.
Data set [3] deals with mouse. The following applies: Combined chronic toxicity/carcinogenicity, other, Oral, Feed, dose end: 24 month, group: systemic.
The subject of data set [4] is rat. The settings on record: Prenatal developmental toxicity study, sprague dawley, Oral, Gavage/Intubation, dose end: 17 GD.
Data set [5] has as its system dog. The following applies: Sub-acute repeat dose toxicity, beagle, Oral, Gavage/Intubation, dose end: 4 week, group: systemic.
Data set [6] relates to rat. The settings on record: Prenatal developmental toxicity study, sprague dawley, Oral, Gavage/Intubation, dose end: 17 GD. This is another data set of the same source.
Another data set deals with rabbit. The following applies: Prenatal developmental toxicity study, new zealand white, Oral, Gavage/Intubation, dose end: 19 GD.
The test system of data set [7] is rat. The following applies: Sub-acute repeat dose toxicity, sprague dawley, Oral, Gavage/Intubation, dose end: 28 day, group: systemic.
The test system of data set [8] is rat. The following applies: Combined chronic toxicity/carcinogenicity, sprague dawley, Oral, Feed, dose end: 24 month, group: systemic.
Data set [9] concerns rat. The following applies: Prenatal developmental toxicity study, sprague dawley, Oral, Gavage/Intubation, dose end: 15 GD.
For data set [10], the system named is rat. The settings on record: Subchronic oral toxicity in rodents, sprague dawley, Feed, dose end: 90 day, group: systemic.
Data set [11] relates to mouse. The settings on record: Carcinogenicity, cd1, Oral, Feed, dose end: 18 month, group: systemic.
For data set [12], the system named is dog. The settings on record: Chronic toxicity, beagle, Oral, Feed, dose end: 52 week, group: systemic.
For data set [13], the system named is mouse. The following applies: Subchronic oral toxicity in rodents, b6c3f1, Water, dose end: 10 week, group: systemic.
For data set [14], the system named is mouse. The following applies: Carcinogenicity, b6c3f1, Oral, Water, dose end: 96 week, group: systemic.
For data set [15], the system named is mouse. The settings on record: Carcinogenicity; b6c3f1; Oral; Feed; dose end: 78 week; group: systemic; systemic / in life observation / body weight / body weight + systemic / pathology microscopic / liver / carcinoma.
Data set [16] deals with rat. The settings on record: Carcinogenicity; other; Oral; Feed; dose end: 78 week; group: systemic; systemic / pathology microscopic / thyroid gland / adenoma + systemic / in life observation / clinical signs / abdominogenital staining + ….
Data set [17] deals with rat. The following applies: Subchronic oral toxicity in rodents, sprague dawley, Gavage/Intubation, dose end: 90 day, group: systemic.
[18] abbreviates: systemic / pathology microscopic / parathyroid gland / hyperplasia.
[19] abbreviates: systemic / clinical chemistry / alanine aminotransferase (alt/sgpt) / alanine aminotransferase (alt/sgpt) + systemic / clinical chemistry / ….
The mark [20] stands for this setting: group: developmental, systemic / in life observation / body weight / fetal weight.
Setting [21] is: group: maternal, systemic / in life observation / body weight / body weight gain + systemic / in life observation / food consumption / food consumption + ….
Setting [22] is: systemic / clinical chemistry / chloride / chloride + systemic / hematology / eosinophils / eosinophils + systemic / hematology / ….
[23] abbreviates: systemic / in life observation / body weight / body weight + systemic / in life observation / clinical signs / defecation (diarrhea) + ….
[24] abbreviates: group: developmental, developmental / developmental malformation / brain / dilated cerebral ventricle.
Where [25] appears, read: group: developmental, developmental / developmental malformation / brain / dilated cerebral ventricle + developmental / developmental malformation / bone / ….
[26] abbreviates: group: maternal, reproductive / reproductive performance / postimplantation loss / postimplantation loss + systemic / in life observation / body weight / ….
Setting [27] is: group: maternal, systemic / in life observation / body weight / body weight gain.
Setting [28] is: group: maternal, reproductive / reproductive performance / postimplantation loss / postimplantation loss + reproductive / reproductive performance / ….
The mark [29] stands for this setting: systemic / hematology / platelet / platelet + systemic / in life observation / clinical signs / hunched posture + systemic / pathology ….
The mark [30] stands for this setting: systemic / clinical chemistry / gamma glutamyl transferase (ggt) / gamma glutamyl transferase (ggt).
Setting [31] is: group: developmental, developmental / developmental malformation / bone / enlarged fontanel + developmental / developmental malformation / bone / incomplete ….
[32] abbreviates: systemic / pathology microscopic / spleen / hyperplasia + systemic / clinical chemistry / calcium / calcium + systemic / clinical chemistry….
[33] abbreviates: systemic / pathology microscopic / nerve / degeneration + systemic / pathology microscopic / spinal cord / degeneration + systemic / ….
The mark [34] stands for this setting: systemic / in life observation / clinical signs / ataxia + systemic / pathology microscopic / brain / vacuolization.
The mark [35] stands for this setting: systemic / in life observation / clinical signs / ataxia + systemic / pathology microscopic / brain / vacuolization + systemic / in life ….
[36] abbreviates: systemic / in life observation / mortality / mortality + systemic / pathology microscopic / kidney / degeneration + systemic / pathology ….
[37] abbreviates: systemic / organ weight / brain / relative to body weight.
Where [38] appears, read: systemic / organ weight / brain / relative to body weight + systemic / organ weight / heart / relative to body weight + systemic / organ ….
Setting [39] is: systemic / clinical chemistry / creatinine / creatinine + systemic / clinical chemistry / phosphorus / phosphorus + systemic / clinical ….
The mark [40] stands for this setting: systemic / in life observation / clinical signs / general pallor + systemic / in life observation / clinical signs / lethargy + systemic / ….

As a reminder, the LOAEL is the lowest tested level that showed an adverse finding. In general, NOAEL refers to the highest dose or exposure tested at which no adverse effect was seen. Turning to `O=c1c(O)c(-c2ccc(O)c(O)c2)oc2cc(O)cc(O)c12` [Quercetin], the LEL is 200 mg/kg/day with rat [1] and 40 mg/kg/day in the data set with rat [2] (setting [18]). Further, the LOAEL is over 2000 mg/kg/day in the data set with rat [1] and 1600 mg/kg/day with rat [2] (systemic / in life observation / body weight / body weight + systemic / in life observation / body weight / body weight gain + systemic / …). The NEL in the data set with rat [1] is 20 mg/kg/day; with rat [2] (setting [18]), under 40 mg/kg/day. Further, the NOAEL with rat [1] is at least 2000 mg/kg/day; in the data set with rat [2] (systemic / in life observation / body weight / body weight + systemic / organ weight / kidney / relative to body weight + systemic / organ …), 400 mg/kg/day.
For the molecule `CC(CCl)OC(C)CCl` (stereo not drawn) [Bis(2-chloro-1-methylethyl) ether], in the data set with mouse [3] (setting [19]), the LOAEL is over 927 mg/kg/day, the NEL came out at 8.41 mg/kg/day and the NOAEL is at least 927 mg/kg/day. The LEL in the data set on mouse [3] (systemic / hematology / leukocyte (wbc) count differential / leukocyte (wbc)) amounted to 40.1 mg/kg/day.
Consider `N#C[C@@H]1CC(F)(F)CN1C(=O)CNC1CC2CCC(C1)N2c1ncccn1` (stereo partly drawn), for which the LEL in the data set on rat [4] (setting [20]) is 100 mg/kg/day; with rat [4] (setting [21]), 200 mg/kg/day; with dog [5] (setting [23]) it was 3 mg/kg/day; in the data set on rat [6] (setting [24]), 100 mg/kg/day; with rat [6] (setting [27]), 100 mg/kg/day; with rabbit (setting [20]), 500 mg/kg/day. For the same molecule, the LEL worked out at 500 mg/kg/day with rabbit (setting [28]) and 50 mg/kg/day in the data set with rat [7] (setting [29]). The LOAEL in the data set with rat [4] (setting [20]) was 100 mg/kg/day; in the data set on rat [4] (setting [21]), 200 mg/kg/day; in the data set on dog [5] (setting [22]), over 30 mg/kg/day; in the data set on rat [6] (setting [24]), 100 mg/kg/day; in the data set on rat [6] (setting [26]), 150 mg/kg/day; in the data set on rabbit (setting [20]) it was over 1500 mg/kg/day. Also, the LOAEL was over 1500 mg/kg/day in the data set with rabbit (setting [28]) and over 450 mg/kg/day in the data set with rat [7] (setting [19]). Moreover, the NEL in the data set on rat [4] (setting [20]) is under 100 mg/kg/day; in the data set on rat [4] (setting [21]) it was 100 mg/kg/day; in the data set on dog [5] (setting [23]), under 3 mg/kg/day; with rat [6] (setting [25]), 50 mg/kg/day; in the data set with rat [6] (setting [26]), 50 mg/kg/day; in the data set with rabbit (setting [20]), under 500 mg/kg/day. The NEL in the data set on rabbit (setting [28]) was under 500 mg/kg/day; with rat [7] (setting [29]), under 50 mg/kg/day. Further, the NOAEL is under 100 mg/kg/day in the data set on rat [4] (setting [20]); 100 mg/kg/day in the data set on rat [4] (setting [21]); at least 30 mg/kg/day in the data set with dog [5] (setting [22]); 50 mg/kg/day in the data set with rat [6] (setting [25]); 100 mg/kg/day in the data set on rat [6] (setting [26]); at least 1500 mg/kg/day in the data set on rabbit (setting [20]). Besides, the NOAEL with rabbit (setting [28]) was at least 1500 mg/kg/day; with rat [7] (setting [19]), at least 450 mg/kg/day.
Consider `Cc1cc(C)nc(NC(=O)NS(=O)(=O)c2ccccc2C(=O)OC2COC2)n1` [Oxasulfuron], for which the LEL worked out at 0.84 mg/kg/day in the data set with rat [8] (setting [30]); 1000 mg/kg/day in the data set with rat [9] (setting [31]); 1000 mg/kg/day in the data set on rat [9] (setting [27]); 15.3 mg/kg/day in the data set with rat [10] (systemic / clinical chemistry / chloride / chloride + systemic / clinical chemistry / cholesterol / cholesterol); 99.1 mg/kg/day in the data set on mouse [11] (systemic / pathology microscopic / nerve / degeneration + systemic / pathology microscopic / spinal cord / degeneration + systemic / organ …); 10.7 mg/kg/day with dog [12] (setting [34]). Also, the LOAEL with rat [8] (setting [30]) was determined as 83 mg/kg/day; in the data set with rat [9] (setting [31]) it was 1000 mg/kg/day; with rat [9] (setting [27]), 1000 mg/kg/day; in the data set on rat [10] (systemic / pathology microscopic / spleen / hyperplasia), 316 mg/kg/day; in the data set with mouse [11] (systemic / pathology microscopic / nerve / degeneration + systemic / pathology microscopic / spinal cord / degeneration) it was 99.1 mg/kg/day; in the data set with dog [12] (setting [34]), 10.7 mg/kg/day. The NEL in the data set with rat [8] (setting [30]) is under 0.84 mg/kg/day; in the data set on rat [9] (setting [31]), 300 mg/kg/day; in the data set on rat [9] (setting [27]) it was 300 mg/kg/day; in the data set with rat [10] (setting [32]), 0.62 mg/kg/day; with mouse [11] (setting [33]) it was 1.5 mg/kg/day; in the data set on dog [12] (setting [35]) it was 1.3 mg/kg/day. The NOAEL worked out at 8.3 mg/kg/day with rat [8] (systemic / clinical chemistry / gamma glutamyl transferase (ggt) / gamma glutamyl transferase (ggt) + systemic / pathology microscopic / …); 300 mg/kg/day in the data set with rat [9] (setting [31]); 300 mg/kg/day in the data set with rat [9] (setting [27]); 15.3 mg/kg/day in the data set with rat [10] (setting [32]); 1.5 mg/kg/day in the data set on mouse [11] (setting [33]); 1.3 mg/kg/day with dog [12] (setting [35]).
For `O=C1O[C@H]([C@H](O)CO)C([O-])=C1O.[Na+]` [Sodium erythorbate (1:1)], the NEL was 3330 mg/kg/day in the data set with mouse [13] (systemic / in life observation / body weight / body weight gain + systemic / in life observation / mortality / mortality + systemic / …) and under 1670 mg/kg/day with mouse [14] (setting [37]). In addition, the LEL with mouse [13] (systemic / in life observation / body weight / body weight gain + systemic / pathology microscopic / kidney / degeneration + systemic / …) turned out to be 6670 mg/kg/day; with mouse [14] (setting [37]), 1670 mg/kg/day. Besides, the LOAEL in the data set on mouse [13] (setting [36]) is over 13300 mg/kg/day; with mouse [14] (setting [38]), over 6670 mg/kg/day. In addition, the NOAEL in the data set on mouse [13] (setting [36]) was at least 13300 mg/kg/day; in the data set with mouse [14] (setting [38]) it was at least 6670 mg/kg/day.
Consider `Clc1ccc(C(c2ccc(Cl)cc2)C(Cl)Cl)cc1` [p,p'-DDD], for which, in the data set on mouse [15], the LEL came to 61.6 mg/kg/day, the LOAEL was over 123 mg/kg/day, the NEL is under 61.6 mg/kg/day and the NOAEL is at least 123 mg/kg/day. Also, in the data set on rat [16], the LEL turned out to be 42.5 mg/kg/day, the lowest-observed-adverse-effect level (LOAEL) was over 85 mg/kg/day, the NEL was under 42.5 mg/kg/day and the NOAEL is at least 85 mg/kg/day.
As to `O=c1c(C2CC(c3ccc(-c4ccc(Br)cc4)cc3)Cc3ccccc32)c(O)sc2ccccc12` (stereo not drawn) [Difethialone], in the data set on rat [17] (setting [39]), the LEL amounted to 0.002 mg/kg/day and the NEL was under 0.002 mg/kg/day. In the data set with rat [17] (setting [40]), the LOAEL was found to be 0.008 mg/kg/day and the NOAEL came to 0.004 mg/kg/day.
